Measurements published in patent publication US10314847B2, “Scalarane sesterterpenoid, pharmaceutical composition and topoisomerase II and Hsp90 inhibitor for treating cancer, and use and preparation method thereof” (NATIONAL DONG HWA UNIVERSITY, priority 2017, dated 2019).

Experiments:
K562 = assay: MTT assay, cytotoxic effect on K562; type: cell-based; conditions: Homo sapiens; K562, molar value in text
Source text: The cell lines were obtained from the American Type Culture Collection (ATCC, Manassas, Va., U.S.A.) or the Japanese Collection of Research Biosources (JCRB) Cell Bank (Japan). […] Antibodies against XIAP, NFκB (p65), GADD, CDK 4, HSF 1, ATF 6 and β-tubulin were obtained from Santa Cruz Biotechnology (Santa Cruz, Calif., U.S.A.). The Hybond ECL transfer membrane and ECL Western blotting detection kits were obtained from Amersham Life Sciences (Amersham, U.K.).
Several cancer cell lines including leukemia K562, Molt 4, and HL 60 cells, prostate cancer LNCaP cells, colon cancer DLD-1 cells and breast cancer T-47D cells were used to evaluate the antiproliferative activity (referring to Table 2).

γH2AX = assay: Western blot of γH2AX expression in Molt 4 cells; type: cell-based, human; conditions: Molt 4 cells, 0.0625, 0.125 and 0.25 μg/mL, 24 hours
Protocol: Protein expression was analyzed with Western blotting. GAPDH was used as the loading control.
In order to confirm whether the DNA damage-induced by the marine terpenoids of the present invention involved the inhibition of Topo II activity, a cell-free DNA cleavage assay using an enzyme-mediated negatively supercoiled pHOT1 plasmid DNA was applied. […] These marine terpenoids suppressed Topo II activity, resulting in the inhibition of supercoiled DNA relaxation in a dose-dependent manner (FIG. 2(A)). […] To determine whether the apoptotic mechanism of compounds 1 to 3 affects γH2AX (as a biomarker of DNA damage) induction, Western blot analysis was employed to examine the activation of γH2AX.

Molt 4 cells [1] = assay: Annexin V/PI apoptosis assay; type: cell-based, human; conditions: Molt 4 cells, 0.0625, 0.125 and 0.25 μg/mL, 24 hours, dose-dependent
Protocol: Annexin V/Propidium Iodide (PI) Apoptosis Assay:
The externalization of phosphatidylserine (PS) and membrane integrity were quantified using an annexin V-fluorescein isothiocyanate (annexin V-FITC) staining kit. In brief, 10^6 cells were grown in 35 mm diameter plates and were labeled with annexin V-FITC (10 μg/mL) and PI (20 μg/mL) prior to harvesting. After labeling, all plates were washed with a binding buffer and harvested. Cells were resuspended in the binding buffer at a concentration of 2×10^5 cells/mL before analysis by flow cytometer FACS-Calibur (Becton-Dickinson, San Jose, Calif., U.S.A.) and CellQuest software. Approximately 10,000 cells were counted for each determination.

Molt 4 cells [2] = assay: JC-1 staining, mitochondrial membrane potential disruption; type: cell-based, human; conditions: Molt 4 cells, 0.0625, 0.125 and 0.25 μg/mL, 24 hours, dose-dependent
Protocol: Determination of Reactive Oxygen Species (ROS) Generation, Calcium Accumulation, and Matrix Metalloproteinase (MMP) Disruption:
MMP disruption, calcium accumulation and ROS generation were detected with the JC-1 cationic dye (5 μg/mL), the fluorescent calcium indicator (Fluo 3, […]) and the carboxy derivative of fluorescein (carboxy-H2DCFDA, […]), respectively. In brief, the treated cells were labeled with a specific fluorescent dye for 30 minutes. After labeling, cells were washed with PBS and resuspended in PBS at a concentration of 1×10^6 cells/mL before analysis via flow cytometry.

[3] = test system: ER stress-related proteins; assay: Western blot of ER stress-related proteins; type: cell-based, human; conditions: Molt 4 cells, time-dependent
Protocol: Oxidative stress is manifested by ROS overexpression and cannot be balanced by the available antioxidant machinery. Compound 1 of the present invention can damage the integrity of mitochondria, which are the major production sites of the superoxide anion, […]. The induction of the intracellular formation of ROS by compound 1 was determined with a carboxyl derivative of fluorescein, carboxy-H2DCFDA dye using flow cytometric analysis. […] In addition, ROS generation could induce ER stress leading to mitochondria-related apoptosis. To further investigate if ER stress is involved in the apoptotic effect induced by compound 1, Western blot analysis was used to determine the expression of ER stress-related proteins. […] Furthermore, the effect of compound 1 on the release of intracellular Ca^2+, was evaluated using fluorescent calcium indicator, Fluo 3. […] In FIG. 4(D), the induction of the typical executor caspases-3 and -7, and γH2AX, was also observed using Western blot analysis. To confirm the induction of DNA damage by compound 1 in Molt 4 cells, a comet assay under neutral electrophoresis condition was utilized. Thus, the effect of compound 1 (0.0625 μg/mL) at different time intervals (0, 3, 6 and 9 hours) on the level of nuclear DNA integrity was determined. […]

Hsp90 client proteins = assay: Western blot of Hsp90, Hsp70 and Hsp90 client proteins; type: cell-based, human; conditions: Molt 4 cells, 0.0625 μg/mL
Protocol: (§1) The induction of Hsp70 is the biomarker of Hsp90 with N-terminal inhibition. Aiming to understand the relation between Hsp90 function and the expression of Hsp70 and 90 clients, Molt 4 cells were treated with compound 1 (0.0625 μg/mL) for different time intervals. […] Furthermore, as shown in FIG. 5(B), Hsp90 client proteins were suppressed, including p70^S6K, NFκB, Raf-1, p-GSK3β, MEK 1 and XIAP ([…] protein), MDM 2 and Rb2 (oncoprotein), and CDK4 (cell cycle regulatory protein), HIF 1 and HSF1 (transcription factor). The majority of Hsps accumulate in subcellular localizations that determine whether a cell is going to die or differentiate. Furthermore, the localization of Hsp70 in response to the compound 1 treatment was identified using immunofluorescence by confocal microscope.

Hsp70 = assay: Immunofluorescence analysis of Hsp70 localization; type: cell-based, human; conditions: Molt 4 cells, confocal microscope
Protocol: Immunofluorescence Analysis:
After treatment with the tested compound, cells were fixed with 4% paraformaldehyde in 50 mM HEPES buffer (pH 7.3) for 30 minutes, and permeabilized for 20 minutes with 0.2% Trition X-100 in PBS (pH 7.4). To prevent non-specific protein binding, cells were incubated with 5% BSA in PBS containing 0.05% Trition X-100 (T-PBS) for 1 hour at room temperature. Cells were then incubated with the primary Hsp70 antibodies (1:500) for 2 hours and further with secondary antibodies (Alexa Fluor […] goat anti-mouse IgG (H+L) (Life Technologies, Carlsbad, Calif., U.S.A.)) diluted at 1:1000 for 1 hour at room temperature. After washing with PBS, cells were observed under a FV1000 confocal laser scanning microscope (Olympus, Tokyo, Japan).
as §1, with “The majority of Hsps accumulate in subcellular localizations that determine whether a cell is going to die or differentiate. Furthermore, the localization of Hsp70 in response to the compound 1 treatment was identified using immunofluorescence by confocal microscope.” left out

Q: With `CC[C@@]1(C)CCC[C@]2(C)[C@H]3C[C@@H](OC(=O)C[C@@H](C)O)[C@]4(C)[C@@H](C=O)C(C(C)=O)=CC[C@H]4[C@]3(C)CC[C@@H]12` (relative stereo) [Compound 1, 12β-(3′β-hydroxybutanoyloxy)-20,24-dimethyl-24-oxo-scalara-16-en-25-al] as the molecule, how does the IC50 (K562) read?
A: 2.08 nM

Q: What about the “Expression of γH2AX (DNA damage biomarker)” value (γH2AX) of the same molecule?
A: significantly enhanced the expression of γH2AX in a dose-dependent manner

Q: And the “Apoptotic population (annexin-V/PI)” value (Molt 4 cells [1])?
A: increase in the apoptotic population

Q: What about the “Mitochondrial membrane potential (JC-1)” value (Molt 4 cells [2]) of the same molecule?
A: disruption in mitochondrial membrane potential

Q: What about the “Expression of ER stress-related proteins” value [3] of the same molecule?
A: promoted the levels of Bip, Chop, Grp 94 and the activation and cleavage of ATF 6 but suppressed the levels of PERK and IRE 1

Q: And the “Expression of HSF 1 protein” value (Hsp90 client proteins)?
A: attenuated

Q: What about the “Hsp90 client proteins (p70S6K, NFκB, Raf-1, p-GSK3β, MEK 1, XIAP, MDM 2, Rb2, CDK4, HIF 1, HSF1)” value (Hsp90 client proteins) of the same molecule?
A: suppressed

Q: What about the “Expression of Hsp70” value (Hsp90 client proteins; different time intervals) of the same molecule?
A: increased in a time-dependent manner

Q: And the “Expression of Hsp90 protein” value (Hsp90 client proteins; different time intervals)?
A: did not notably attenuate

Q: What about the “Localization of Hsp70” value (Hsp70) of the same molecule?
A: predominantly accumulated in cytosol
